Laboratory results from US9522978B2, “PI polyamide” (NIHON UNIVERSITY, priority 2013, dated 2016).

Assays:
PSA promoter region = test: Luciferase assay of AR activity in PSA promoter region (positive control); type: cell-based, Human; details: LNCaP, compared to same amount of PI polyamide (control), FIG. 7
Experimental: (§1) About 1 kb of AR binding site (ARBS) located 63 kb upstream of the ACSL3 transcription start point was extracted (SEQ ID NO:10) and insert into a luciferase vector (pGL3 promoter vector: Promega, Madison, Wis.). This vector was used for transfection of a prostate cancer cell (LNCaP) cultured for about 60 hours in the Phenol-Red-free medium of 3. (2) by using FuGENE (registered trademark) HD (Roche Applied Science) as a transection reagent in accordance with the protocol thereof.
(§2) After about 12 hours, androgen stimulation using 100 nM of DHT and introduction of the PI polyamide (1) or PI polyamide (control) (1 μM or 5 μM) were performed and followed by a luciferase assay. This test was conducted by using prostate cancer cells (LNCaP) incorporated with a PSA promoter region (SEQ ID NO:22) known to have AR response activity as a positive control for the luciferase vector.

[1] = system: ACSL3 transcriptional regulatory region (AR response region); test: Luciferase assay of AR activity in ACSL3 transcriptional regulatory region; type: cell-based, Human; details: LNCaP, 1 μM or 5 μM, DHT 100 nM, compared to same amount of PI polyamide (control), FIG. 6
Experimental: as §1, §2

ACSL3 gene = test: Examination of expression of ACSL3 gene by RT-PCR in LNCaP cells; type: cell-based, Human
Experimental: The expression of ACSL3 Gene was examined by RT-PCR in a cell into which each of the PI polyamides (1) to (3) was introduced. For comparison, the same examination was conducted for a cell into which the PI polyamide (control) was introduced.
The LNCaP cells were cultured for 3 days in the Phenol-Red-free medium of 3. (2) to which each of the PI polyamides was added at 5 μM. Subsequently, DHT (100 nM) of 4. was added into the medium to apply androgen stimulation.
After RNA is extracted from the cells by using Isogen (Nippon Gene) in accordance with a manual, cDNA was prepared by using PrimeScript (registered trademark) Reverse Transcriptase (manufactured by TaKaRa).
Each of the cDNAs prepared in 1) was used as a template DNA to examine with primers listed in Table 4 the presence/absence of expression of a fusion gene or an ERG gene in the prostate cancer cell into which each of the PI polyamides was introduced. In this RT-qPCR, Power SYBR (registered trademark) Green PCR Master Mix (manufactured by Applied Biosystems) was used.

ACSL3 protein = test: Western blotting of ACSL3 protein from excised tumors; type: in vivo, Human; details: nude mice, tail vein 6 mg/kg once per week for 4 weeks, FIG. 12
Experimental: (§3) To 7-week-old male nude mice (n=10), 3×10^6 prostate cancer cells (LNCaP) were subcutaneously injected at the right flank. A tumor size was monitored by caliper measurement every 3 days. When the tumor size reaches […], the PI polyamide (1) or the PI polyamide (control) dissolved in dH2O was injected from a tail vein at 6 mg/kg bodyweight (PI polyamide (1): n=4, PI polyamide (control): n=6).
(§4) The injection was performed once per week for 4 weeks and the tumor size was measured every week. After one week from the last injection, the nude mice were dissected to excise the tumors.
FIG. 12 depicts a result of western blotting with an ACSL3 antibody of protein extracted using a lysis buffer (NP40 buffer) from the excised tumors (two individuals #1 and #2) (upper portion of FIG. 12; lower portion indicates expression of β-actin protein).

LNCaP cells [2] = test: Evaluation of proliferation ability by MTS assay; type: cell-based, Human
Experimental: After treatment with the PI polyamide (1) or the PI polyamide (control) for comparison, the proliferation ability of these cells were examined by MTS assay.
In particular, the LNCaP cells were seeded on a 96-well plate to 5×10^3 cells in total and cultured for 3 days in the Phenol-Red-free medium of 3. (2) to which each of the PI polyamides was added at 1 μM or 5 μM. Subsequently, DHT (100 nM) of 4. was added into the medium to apply androgen stimulation. After the stimulation, each of the cells were cultured for 24, 48, or 96 hours.
After the specified stimulation time, 10 μl of an MTS reagent (Cell Titer 96 AQueous One Solution Cell Proliferation Assay, Promega, Madison Wis.) was added to the cells before incubation for 1 hour. Subsequently, the absorbance (490 nm) of the cells was measured and the numbers of the cultured cells were examined to evaluate the cell proliferation ability.

[3] = system: prostate cancer cells (LNCaP) tumor; test: Effect of the PI polyamide on a tumor in nude mice injected with LNCaP; type: in vivo; details: tail vein 6 mg/kg once per week for 4 weeks, compared to PI polyamide (control), FIG. 11
Experimental: The effect of the PI polyamide on a tumor was confirmed.
as §3, §4

LNCaP cells [4] = test: Evaluation of cell migration ability (cell migration assay); type: cell-based, Human; details: 5 μM, 3 days, compared to PI polyamide (control), FIGS. 9 and 10
Experimental: After culturing cells into which the PI polyamide (1) was introduced and cells into which the PI polyamide (control) was introduced for comparison, the migration ability of the cells was examined by a cell migration assay using a cell culture insert and a 8.0 μm pore size PET filter (manufactured by Becton Dickinson).
In particular, after fibronectin (manufactured by Sigma) diluted with PBS to 10 μg/ml was allowed to act on a culture dish for 30 minutes to form a lower filter, 700 μl of the Phenol-Red-containing RPMI 1640 medium of 3. (1) was added to a lower chamber.
The LNCaP cells were cultured for 3 days in the Phenol-Red-containing medium of 3. (1) to which each of the PI polyamides was added at 5 μM and divided into units of 5×10^4 cells, and each unit of cells was suspended in 300 μl of the Phenol-Red-containing medium of 3. (1) and added to the upper chamber. After the cells were cultured at 37° C. under the condition of 5% CO2, the filter was peeled off.
The cells on the lower filter were fixed by methanol for 30 minutes and then incubated for 30 seconds in Gimsa's stain solution (manufactured by Muto Pure Chemicals). Subsequently, the cells were observed by a microscope of 200 magnifications to count the number of cells, thereby evaluating the cell migration ability.

[5] = system: Oct1 oligo DNA (Oct1 gene binding sequence, SEQ ID NO:1); test: DNA Binding Assay (gel electrophoretic pattern); details: 5 μl of 0.2 mM PI polyamide mixed with 15 μl hairpin double strand DNA, 37° C. 1 hour
Experimental: For each of the PI polyamides (1) to (3) (three types) generated in 5, a DNA Binding Assay of the following steps 1) and 2) was performed to confirm binding to the Oct1 gene binding sequence (SEQ ID NO:1). The PI polyamide (control) was also examined in terms of the presence/absence of binding to the Oct1 gene binding sequence (SEQ ID NO:1).
1) Molecules (50-base) were created that have Oct1 oligo DNA including the same base sequence as the Oct1 gene binding sequence (SEQ ID NO:1) labelled with FITC, and the oligo at a final concentration of 1 μM was heated to 100° C. in an annealing buffer (20 mM Tris-HCl, 2 mM EDTA, 200 mM NaCl). The oligo was cooled for 2 hours in stages to 30° C. As a result, the Oct1 oligo DNA underwent self-annealing and forms a double strand in a hairpin shape.
2) 15 μl of solution containing the hairpin-shaped double strand DNA of 1) was mixed with 5 μl of each of the 0.2 mM PI polyamides (1) to (3) and PI polyamide (control) and incubated at 37° C. for 1 hour to acquire a mixed solution.
3) The mixed solution of 2) was electrophoresed in 5-20% acrylamide gel (TBE buffer) and an electrophoretic pattern was monitored with LAS 4000 (manufactured by GE Healthcare Japan) to determine the presence/absence of binding from a difference in the electrophoretic pattern.

[6] = 5 μM, 3 days, androgen stimulation DHT 100 nM, FIG. 4
[7] = concentration and time not stated

| Molecule | AR activity in the PSA promoter region (PSA promoter region) | AR activity in the ACSL3 transcriptional regulatory region (AR response region) [1] | expression of the ACSL3 gene (ACSL3 gene; 5 μM (1 μM or 5 μM tested), androgen stimulation, FIG. 5) | expression of the ACSL3 gene (ACSL3 gene; [6]) | expression of the ACSL3 protein in excised tumors (ACSL3 protein) | cell proliferation (LNCaP cells [2]; 5 μM, after 48 hours of incubation, compared to PI polyamide (control) 5 μM, FIG. 8) | cell proliferation (LNCaP cells [2]; 5 μM, after 96 hours of incubation, FIG. 8) | formation of tumor [3] | cell migration ability (invasive potential) (LNCaP cells [4]) | cell proliferation (LNCaP cells [2]; [7]) | binding to the Oct1 oligo DNA (presence/absence) [5] |
| --- | --- | --- | --- | --- | --- | --- | --- | --- | --- | --- | --- |
| CC(=O)Nc1cc(C(=O)Nc2cc(C(=O)NCCC(=O)Nc3cn(C)c(C(=O)Nc4cc(C(=O)Nc5cc(C(=O)NCCCC(=O)Nc6cc(C(=O)Nc7cn(C)c(C(=O)Nc8cc(C(=O)NCCC(=O)Nc9cn(C)c(C(=O)Nc%10cc(C(=O)NCCC(=O)NCCCN(C)C)n(C)c%10)n9)n(C)c8)n7)n(C)c6)n(C)c5)n(C)c4)n3)n(C)c2)n(C)c1 [PI polyamide (1), AcPyPyβImPyPyγPyImPyβImPyβDp] | no significant difference | significantly reduces | particularly inhibited | inhibited | remarkably inhibited | significantly inhibited | further significantly inhibited | remarkably inhibited | significantly inhibited | – | – |
| CC(=O)Nc1cn(C)c(C(=O)Nc2cc(C(=O)NCCC(=O)Nc3cc(C(=O)Nc4cc(C(=O)Nc5cc(C(=O)NCCCC(=O)Nc6cc(C(=O)Nc7cc(C(=O)Nc8cc(C(=O)NCCC(=O)Nc9cn(C)c(C(=O)Nc%10cc(C(=O)NCCC(=O)NCCCN(C)C)n(C)c%10)n9)n(C)c8)n(C)c7)n(C)c6)n(C)c5)n(C)c4)n(C)c3)n(C)c2)n1 [PI polyamide (2), AcImPyβPyPyPyγPyPyPyβImPyβDp] | – | – | – | inhibited | – | – | – | – | suppressed in the same way | suppressed in the same way | – |
| CC(=O)Nc1cc(C(=O)Nc2cc(C(=O)NCCC(=O)Nc3cc(C(=O)Nc4cc(C(=O)Nc5cc(C(=O)NCCCC(=O)Nc6cn(C)c(C(=O)Nc7cc(C(=O)Nc8cc(C(=O)NCCC(=O)Nc9cc(C(=O)Nc%10cc(C(=O)NCCC(=O)NCCCN(C)C)n(C)c%10)n(C)c9)n(C)c8)n(C)c7)n6)n(C)c5)n(C)c4)n(C)c3)n(C)c2)n(C)c1 [PI polyamide (3), AcPyPyβPyPyPyγImPyPyβPyPyβDp] | – | – | – | inhibited | – | – | – | – | suppressed in the same way | suppressed in the same way | – |
| AcPyPyPyImβImγPyβPyImβImβDp [PI polyamide (control), reference compound] | – | – | – | not inhibited | expressed | – | – | – | – | – | no binding occurs |
